Experimental findings from patent publication US8329706B2, “Oxazolidinone derivatives” (Actelion Pharmaceuticals Ltd., priority 2009, dated 2012) are described below.

For one experiment, the target named is T1, human orexin-1 receptor (Homo sapiens, UniProt O43613).
T1 construct: expressed in transfected cells; host or cells: CHO cells (G418 selection)
T1 sequence (O43613 1-425): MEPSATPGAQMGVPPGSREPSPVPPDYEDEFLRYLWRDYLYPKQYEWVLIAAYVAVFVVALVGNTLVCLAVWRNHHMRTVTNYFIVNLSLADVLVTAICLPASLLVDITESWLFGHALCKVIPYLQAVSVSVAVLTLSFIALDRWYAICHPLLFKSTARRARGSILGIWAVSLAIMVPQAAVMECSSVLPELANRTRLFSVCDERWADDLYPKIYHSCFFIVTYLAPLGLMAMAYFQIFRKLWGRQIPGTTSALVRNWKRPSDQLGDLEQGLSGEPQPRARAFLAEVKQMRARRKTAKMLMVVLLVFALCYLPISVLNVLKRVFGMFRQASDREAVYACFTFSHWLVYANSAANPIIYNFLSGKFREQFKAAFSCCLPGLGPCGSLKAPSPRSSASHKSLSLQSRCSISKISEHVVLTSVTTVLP
In words: FLIPR intracellular calcium assay, orexin receptor antagonistic activity (OX1). The format is cell-based. As to conditions: CHO cells expressing human orexin-1 receptor; agonist 3 nM orexin-A; normalized to on-plate reference; * geomean n = 5, *2 geomean n = 2. The method, then:
(§1) The orexin receptor antagonistic activity of the compounds of formula (I) is determined in accordance with the following experimental method.
(§2) Chinese hamster ovary (CHO) cells expressing the human orexin-1 receptor and the human orexin-2 receptor, respectively, are grown in culture medium (Ham F-12 with L-Glutamine) containing 300 μg/ml G418, 100 U/ml penicillin, 100 μg/ml streptomycin and 10% heat inactivated fetal calf serum (FCS). The cells are seeded at 20′000 cells/well into 384-well black clear bottom sterile plates (Greiner). The seeded plates are incubated overnight at 37° C. in 5% CO2.
(§3) Human orexin-A as an agonist is prepared as 1 mM stock solution in MeOH:water (1:1), diluted in HBSS containing 0.1% bovine serum albumin (BSA), NaHCO3: 0.375 g/l and 20 mM HEPES for use in the assay at a final concentration of 3 nM.
(§4) Antagonists are prepared as 10 mM stock solution in DMSO, then diluted in 384-well plates using DMSO followed by a transfer of the dilutions into in HBSS containing 0.1% bovine serum albumin (BSA), NaHCO3: 0.375 g/l and 20 mM HEPES. On the day of the assay, 50 μl of staining buffer (HBSS containing 1% FCS, 20 mM HEPES, NaHCO3: 0.375 g/l, 5 mM probenecid (Sigma) and 3 μM of the fluorescent calcium indicator fluo-4 AM (1 mM stock solution in DMSO, containing 10% pluronic) is added to each well. The 384-well cell-plates are incubated for 50 min at 37° C. in 5% CO2 followed by equilibration at rt for 30-120 min before measurement.
(§5) Within the Fluorescent Imaging Plate Reader (FLIPR Tetra, Molecular Devices), antagonists are added to the plate in a volume of 10 μl/well, incubated for 10 min and finally 10 μl/well of agonist is added. Fluorescence is measured for each well at 1 second intervals, and the height of each fluorescence peak is compared to the height of the fluorescence peak induced by 3 nM orexin-A with vehicle in place of antagonist. For each antagonist, the IC50 value (the concentration of compound needed to inhibit 50% of the agonistic response) is determined and normalized using the obtained IC50 value of a on-plate reference compound. Optimized conditions were achieved by adjustment of pipetting speed and cell splitting regime. The calculated IC50 values of the compounds may fluctuate depending on the daily cellular assay performance. Fluctuations of this kind are known to those skilled in the art.
In general terms: A change in cytosolic calcium serves as a functional read-out for many receptors and channels.

Another experiment has as its target T2, human orexin-2 receptor (Homo sapiens, UniProt O43614).
T2 construct: expressed in transfected cells; host or cells: CHO cells (G418 selection)
T2 sequence (O43614 1-444): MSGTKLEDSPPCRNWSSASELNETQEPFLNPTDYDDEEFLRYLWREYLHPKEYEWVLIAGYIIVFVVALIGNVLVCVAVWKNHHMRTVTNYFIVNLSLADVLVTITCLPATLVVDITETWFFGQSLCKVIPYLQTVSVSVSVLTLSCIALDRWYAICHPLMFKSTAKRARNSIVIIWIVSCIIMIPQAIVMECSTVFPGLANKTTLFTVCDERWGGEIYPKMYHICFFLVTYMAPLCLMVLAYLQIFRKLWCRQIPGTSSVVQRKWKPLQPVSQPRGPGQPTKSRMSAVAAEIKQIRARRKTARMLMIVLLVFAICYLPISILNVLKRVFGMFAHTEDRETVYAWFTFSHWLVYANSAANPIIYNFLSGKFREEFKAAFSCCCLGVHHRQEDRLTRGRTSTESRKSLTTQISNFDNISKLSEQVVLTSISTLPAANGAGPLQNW
In words: FLIPR intracellular calcium assay, orexin receptor antagonistic activity (OX2). Format: cell-based. As to conditions: CHO cells expressing human orexin-2 receptor; agonist 3 nM orexin-A; normalized to on-plate reference; * geomean n = 5, *2 geomean n = 2. The method, then:
as §1, §2, §3, §4, §5

With `COc1cccc(OC)c1C1OCC(=O)N1Cc1ccc(Oc2ccccc2)cc1` (stereo not drawn) [Example 47, 2-(2,6-Dimethoxy-phenyl)-3-(4-phenoxy-benzyl)-oxazolidin-4-one], the IC50 on human orexin-1 receptor amounted to 1.18 µM; at human orexin-2 receptor, 0.068 µM.
`CCOc1ccccc1C1OCC(=O)N1Cc1ccc(C(F)(F)F)cc1F` (stereo not drawn) [Example 22, 2-(2-Ethoxy-phenyl)-3-(2-fluoro-4-trifluoromethyl-benzyl)-oxazolidin-4-one]: the 50% inhibitory concentration (IC50) on human orexin-1 receptor was over 10 µM; on human orexin-2 receptor it was 0.839 µM.
Regarding `CCOc1ccccc1C1OCC(=O)N1Cc1ccc(Cl)c(F)c1` (stereo not drawn) [Example 17, 3-(4-Chloro-3-fluoro-benzyl)-2-(2-ethoxy-phenyl)-oxazolidin-4-one], the results for the IC50 on human orexin-1 receptor and at human orexin-2 receptor were 9.37 µM and 0.627 µM, respectively.
As for `COc1cccc(OC)c1C1OCC(=O)N1Cc1ccc(OC(F)(F)F)c(Cl)c1` (stereo not drawn) [Example 40, 3-(3-Chloro-4-trifluoromethoxy-benzyl)-2-(2,6-dimethoxy-phenyl)-oxazolidin-4-one], the IC50 was 0.198 µM on human orexin-1 receptor and 0.029 µM at human orexin-2 receptor.
On to `CCOc1ccccc1C1OCC(=O)N1Cc1c(F)ccc(F)c1Cl` (stereo not drawn) [Example 16, 3-(2-Chloro-3,6-difluoro-benzyl)-2-(2-ethoxy-phenyl)-oxazolidin-4-one], for which the IC50 stood at 0.59 µM at human orexin-1 receptor and 3.81 µM at human orexin-2 receptor.
Turning to `COc1cccc(OC)c1C1OC(C)(C)C(=O)N1Cc1ccc2c(c1)OCO2` (stereo not drawn) [Example 71, 3-Benzo[1,3]dioxol-5-ylmethyl-2-(2,6-dimethoxy-phenyl)-5,5-dimethyl-oxazolidin-4-one], the IC50 amounted to 0.15 µM on human orexin-1 receptor and 1.66 µM at human orexin-2 receptor.
The like results for `COc1cccc(OC(C)C)c1C1OC(C)(C)C(=O)N1Cc1ccc(Oc2ccccc2)cc1` (stereo not drawn) [Example 96, 2-(2-Isopropoxy-6-methoxy-phenyl)-5,5-dimethyl-3-(4-phenoxy-benzyl)-oxazolidin-4-one] were, in that order, 0.01 µM and 0.12 µM.
On the same counts, the results for `CC1(C)OC(c2c(F)cccc2F)N(Cc2ccc(OC(F)(F)F)c(Cl)c2)C1=O` (stereo not drawn) [Example 82, 3-(3-Chloro-4-trifluoromethoxy-benzyl)-2-(2,6-difluoro-phenyl)-5,5-dimethyl-oxazolidin-4-one] are 0.336 µM and 0.11 µM.
On the same counts, the results for `CCOc1ccccc1C1OCC(=O)N1Cc1ccccc1Cl` (stereo not drawn) [Example 45, 3-(2-Chloro-benzyl)-2-(2-ethoxy-phenyl)-oxazolidin-4-one] are 1.74 µM and 0.87 µM.
Consider `COc1cccc(OC)c1C1OC(C)(C)C(=O)N1Cc1ccc(Oc2ccccc2)cc1` (stereo not drawn) [Example 50, 2-(2,6-Dimethoxy-phenyl)-5,5-dimethyl-3-(4-phenoxy-benzyl)-oxazolidin-4-one], for which the IC50 on human orexin-1 receptor is 0.028 µM; on human orexin-2 receptor it was 0.058 µM.
The like results for `COc1cccc(OC)c1C1OC(C)(C)C(=O)N1Cc1ccc(Oc2ccc(C)nn2)cc1` (stereo not drawn) [Example 93, 2-(2,6-Dimethoxy-phenyl)-5,5-dimethyl-3-[4-(6-methyl-pyridazin-3-yloxy)-benzyl]-oxazolidin-4-one] were, in that order, 1.2 µM and 8.33 µM.
On the same counts, the results for `COc1cccc(C(F)(F)F)c1C1OC(C)(C)C(=O)N1Cc1ccc(Oc2ccccc2)cc1` (stereo not drawn) [Example 86, 2-(2-Methoxy-6-trifluoromethyl-phenyl)-5,5-dimethyl-3-(4-phenoxy-benzyl)-oxazolidin-4-one] are 2.18 µM and 0.065 µM.
Consider `COc1cccc(OC)c1C1OC(C)(C)C(=O)N1Cc1ccc(Oc2ccccc2)cn1` (stereo not drawn) [Example 90, 2-(2,6-Dimethoxy-phenyl)-5,5-dimethyl-3-(5-phenoxy-pyridin-2-ylmethyl)-oxazolidin-4-one], for which the IC50 at human orexin-1 receptor worked out at 0.413 µM; on human orexin-2 receptor it was 0.236 µM.
The like results for `COc1cccc(OC)c1C1OCC(=O)N1Cc1ccc(Cl)cc1Cl` (stereo not drawn) [Example 42, 3-(2,4-Dichloro-benzyl)-2-(2,6-dimethoxy-phenyl)-oxazolidin-4-one] were, in that order, 1.49 µM and 0.376 µM.
Regarding “3-(3-Chloro-4-methyl-benzyl)-2-(2,6-dimethoxy-phenyl)-oxazolidin-4-one [Example 43]”, the IC50 is 0.553 µM on human orexin-1 receptor and 0.349 µM at human orexin-2 receptor.
For the molecule `COc1cccc(OC)c1C1OC(C)(C)C(=O)N1Cc1nc2ccccc2o1` (stereo not drawn) [Example 68, 3-Benzooxazol-2-ylmethyl-2-(2,6-dimethoxy-phenyl)-5,5-dimethyl-oxazolidin-4-one], the IC50 at human orexin-1 receptor came out at 2.94 µM; on human orexin-2 receptor it was 0.508 µM.
On the same counts, the results for `COc1cccc(OC)c1C1O[C@H](C)C(=O)N1Cc1ccc(OC(F)(F)F)c(F)c1` (stereo partly drawn) [Example 55, 2-(2,6-Dimethoxy-phenyl)-3-(3-fluoro-4-trifluoromethoxy-benzyl)-(R)-5-methyl-oxazolidin-4-one] are 0.178 µM and 0.108 µM.
For the molecule `COc1cccc(OC)c1C1OCC(=O)N1Cc1ccc(OC(F)(F)F)c(F)c1` (stereo not drawn) [Example 48, 2-(2,6-Dimethoxy-phenyl)-3-(3-fluoro-4-trifluoromethoxy-benzyl)-oxazolidin-4-one], the IC50 was 1.35 µM on human orexin-1 receptor and 0.099 µM on human orexin-2 receptor.
The like results for `COc1cccc(OC)c1C1O[C@H](C)C(=O)N1Cc1ccc(OC(C)C)cc1` (stereo partly drawn) [Example 74, 2-(2,6-Dimethoxy-phenyl)-3-(4-isopropoxy-benzyl)-(R)-5-methyl-oxazolidin-4-one] were, in that order, 1.21 µM and 0.095 µM.
The like results for `COc1cccc(OC)c1C1OCC(=O)N1Cc1ccc(OC(C)C)cc1` (stereo not drawn) [Example 60, 2-(2,6-Dimethoxy-phenyl)-3-(4-isopropoxy-benzyl)-oxazolidin-4-one] were, in that order, 3.24 µM and 0.159 µM.
The like results for `COc1cccc(OC)c1C1OC(C)(C)C(=O)N1Cc1ccc(Oc2ccccn2)cc1` (stereo not drawn) [Example 91, 2-(2,6-Dimethoxy-phenyl)-5,5-dimethyl-3-[4-(pyridin-2-yloxy)-benzyl]-oxazolidin-4-one] were, in that order, 0.11 µM and 0.443 µM.
As to `COc1cccc(OC)c1C1O[C@@H](C)C(=O)N1Cc1ccc2ccccc2c1` (stereo partly drawn) [Example 66, 2-(2,6-Dimethoxy-phenyl)-(S)-5-methyl-3-naphthalen-2-ylmethyl-oxazolidin-4-one], the IC50 amounted to 0.421 µM at human orexin-1 receptor and 0.266 µM at human orexin-2 receptor.
The like results for `COc1cccc(OC)c1C1O[C@H](C)C(=O)N1Cc1nc2ccccc2s1` (stereo partly drawn) [Example 62, 3-Benzothiazol-2-ylmethyl-2-(2,6-dimethoxy-phenyl)-(R)-5-methyl-oxazolidin-4-one] were, in that order, 2.87 µM and 0.193 µM.
The like results for `COc1cccc(OC)c1C1OCC(=O)N1Cc1ccc(F)c(C(F)(F)F)c1` (stereo not drawn) [Example 38, 2-(2,6-Dimethoxy-phenyl)-3-(4-fluoro-3-trifluoromethyl-benzyl)-oxazolidin-4-one] were, in that order, 1.38 µM and 0.73 µM.

Usually IC50 stands for the concentration at which inhibition is half-maximal.
